Measurements published in publication PMC12040169 (PLOS Biology, 2025).
pIC50: −log10 of the molar value. In brackets after ≈: the same amount, converted by molar mass.

Tests used:
[1] = target: T1, ctFabH (CTL2 FabH), His6(-fMet)SG-ctFabH (Chlamydia trachomatis, UniProt O84242); assay: continuous UV assay of acetoacetyl-CoA at […] nm; format: biochemical; settings: 20 µM enzyme, 100 µM acetyl-CoA, 100 µM malonyl-CoA, pH 8.0, 25 °C, 50 mM MgCl2
T1 construct: synthetic gene, modified pRSF-Duet1, E. coli host; partly acylated (mainly pentanoyl) as purified
T1 sequence (O84242 2-327): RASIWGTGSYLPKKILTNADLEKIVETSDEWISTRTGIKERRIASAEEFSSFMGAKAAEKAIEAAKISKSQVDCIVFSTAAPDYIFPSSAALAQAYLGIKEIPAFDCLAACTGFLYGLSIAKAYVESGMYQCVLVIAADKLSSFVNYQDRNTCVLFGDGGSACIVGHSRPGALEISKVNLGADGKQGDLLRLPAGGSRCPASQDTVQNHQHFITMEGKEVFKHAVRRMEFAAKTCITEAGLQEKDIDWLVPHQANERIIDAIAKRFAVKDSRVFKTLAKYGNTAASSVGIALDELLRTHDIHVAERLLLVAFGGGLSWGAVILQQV

[2] = system: T2, CTL2-GFP (C. trachomatis L2/434/Bu, GFP-expressing); assay: microbe, parasite or virus in culture; parameters: Intracellular C. trachomatis growth in HeLa cells, bulk GFP fluorescence relative to DMSO; settings: Chlamydia trachomatis, HeLa, 28.5 h; bulk GFP
T2 construct: L2/434/Bu, GFP-expressing
Method: (§1) MICs were calculated as described above.

L. iners = system: T3, L. iners; assay: organism not typed; parameters: Microbial growth in liquid dilution assay, OD600 relative to DMSO control; settings: estimated IC50; read-out: L. iners, IC50 (µM) estimate
T3 construct: DSM 13335

C. albicans = system: T4, C. albicans; assay: microbe, parasite or virus in culture; parameters: Microbial growth in liquid dilution assay, OD600 relative to DMSO control; settings: Candida albicans, read-out: C. albicans, IC50 (µM) estimate
T4 construct: DSM 1577

G. vaginalis = system: T5, G. vaginalis; assay: microbe, parasite or virus in culture; parameters: Microbial growth in liquid dilution assay, OD600 relative to DMSO control; settings: Gardnerella vaginalis, read-out: G. vaginalis, IC50 (µM) estimate
T5 construct: DSM 4944

L. crispatus = system: T6, L. crispatus; assay: microbe, parasite or virus in culture; parameters: Microbial growth in liquid dilution assay, OD600 relative to DMSO control; settings: Lactobacillus crispatus; estimated IC50; read-out: L. crispatus, IC50 (µM) estimate
T6 construct: DSM 20584

L. reuteri = system: T7, L. reuteri; assay: microbe, parasite or virus in culture; parameters: Microbial growth in liquid dilution assay, OD600 relative to DMSO control; settings: Limosilactobacillus reuteri; estimated IC50; read-out: L. reuteri, IC50 (µM) estimate
T7 construct: DSM 20016
Method in brief: (§2)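 Commensal strains first went through dilution-assay growth testing, where compound levels included 30 µM. Next, radial diffusion plates were run with 24–48 h compound exposure. Growth inhibition zones were then measured.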

B. thetaiotaomicron = system: T8, B. thetaiotaomicron; assay: microbe, parasite or virus in culture; parameters: Microbial growth in liquid dilution assay, OD600 relative to DMSO control; settings: Bacteroides thetaiotaomicron; estimated IC50; read-out: B. thetaiotaomicron, IC50 (µM) estimate
T8 construct: DSM 2079
Method in brief: as §2

B. adolescentis = system: T9, B. adolescentis; assay: microbe, parasite or virus in culture; parameters: Microbial growth in liquid dilution assay, OD600 relative to DMSO control; settings: Bifidobacterium adolescentis; estimated IC50; read-out: B. adolescentis, IC50 (µM) estimate
T9 construct: DSM 20083
Method in brief: as §2

E. faecalis = system: T10, E. faecalis; assay: microbe, parasite or virus in culture; parameters: Microbial growth in liquid dilution assay, OD600 relative to DMSO control; settings: Enterococcus faecalis; estimated IC50; read-out: E. faecalis, IC50 (µM) estimate
T10 construct: DSM 20478
Method in brief: as §2

E. coli = system: T11, E. coli; assay: microbe, parasite or virus in culture; parameters: Microbial growth in liquid dilution assay, OD600 relative to DMSO control; settings: Escherichia coli; estimated IC50; read-out: E. coli, IC50 (µM) estimate
T11 construct: DSM 301
Method in brief: as §2

[3] = system: T2, CTL2-GFP (C. trachomatis L2/434/Bu, GFP-expressing); assay: microbe, parasite or virus in culture; parameters: species or system HeLa; Intracellular C. trachomatis growth in HeLa cells, bulk GFP fluorescence relative to DMSO; settings: Chlamydia trachomatis, 28.5 h; bulk GFP
Method: as §1

[4] = system: T2, CTL2-GFP (C. trachomatis L2/434/Bu, GFP-expressing); assay: microbe, parasite or virus in culture; parameters: species or system HeLa; C. trachomatis growth in HeLa, dose-response, mean of bulk GFP fluorescence and imaged total inclusion area; settings: Chlamydia trachomatis, 28.5 h; mean of GFP and inclusion area
Method in brief: (§3)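 GFP/resorufin bulk fluorescence read → fix → Hoechst stain → high-content imaging. Inclusion total area + count = growth proxy; nuclei count = host viability proxy. MIC calc per earlier method.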

[5] = system: T2, CTL2-GFP (C. trachomatis L2/434/Bu, GFP-expressing); assay: microbe, parasite or virus in culture; parameters: C. trachomatis growth in HeLa, dose-response, mean of bulk GFP fluorescence and imaged total inclusion area; settings: Chlamydia trachomatis, HeLa, 28.5 h; mean of GFP and inclusion area
Method in brief: as §3

in vitro = assay: in vitro; parameters: Viability of infected HeLa host cells, resazurin conversion, bulk resorufin fluorescence relative to DMSO; settings: human, hela cells; bulk resorufin, mean of 3
[6] = target: T12, acyl-modification-free ctFabH (Chlamydia trachomatis, UniProt O84242); assay: intact protein LC/MS; format: biochemical; settings: covalent acyl-enzyme intermediate; 10 µM protein, 50 µM acyl-CoA, pH 7.0
T12 construct: gene fabH
T12 sequence (O84242 2-327): T1 sequence (O84242 2-327)

Row | Structure (SMILES) | IC50 (L. iners) | IC50 (C. albicans) | IC50 (G. vaginalis) | IC50 (L. crispatus) | IC50 (L. reuteri) | IC50 (B. thetaiotaomicron) | IC50 (B. adolescentis) | IC50 (E. faecalis) | IC50 (E. coli) | IC50 [5] | viability at 28.5 h, 0.000416667 µM (in vitro) | viability at 28.5 h, 0.00125 µM (in vitro) | viability at 28.5 h, 0.00375 µM (in vitro) | viability at 28.5 h, 0.0123333 µM (in vitro) | viability at 28.5 h, 0.037 µM (in vitro) | viability at 28.5 h, 0.111 µM (in vitro) | viability at 28.5 h, 0.333 µM (in vitro) | viability at 28.5 h, 1 µM (in vitro) | viability at 28.5 h, 3 µM (in vitro) | viability at 28.5 h, 10 µM (in vitro) | further results
1 | CC(=O)SCCNC(=O)CCNC(=O)[C@H](O)C(C)(C)COP(=O)(O)OP(=O)(O)OC[C@H]1O[C@@H](n2cnc3c(N)ncnc32)[C@H](O)[C@@H]1OP(=O)(O)O [acetyl-CoA] |  |  |  |  |  |  |  |  |  |  |  |  |  |  |  |  |  |  |  |  | continuous UV assay of acetoacetyl-CoA at 302 nm [1]: using acetyl-CoA and malonyl-CoA (instead of malonyl-ACP) as substrates
2 | Cc1noc(NS(=O)(=O)c2ccc(NC(=O)CSc3nc4ccccc4s3)cc2)c1C [c1v] | > 30 µM | > 30 µM | > 30 µM | > 30 µM | > 30 µM | > 30 µM | > 30 µM | > 30 µM | > 30 µM |  |  |  |  |  |  |  |  |  |  |  | pIC50 [2]: 6.38; MIC [3]: 0.552 µM (≈ 0.262 µg/mL)
3 | O=C(c1ccc(-c2ccc(F)cc2)o1)N1C[C@H]2CC[C@](O)(c3ccc(F)cc3)[C@H]2C1 [c2e] | > 30 µM | > 30 µM | > 30 µM | > 30 µM | > 30 µM | > 30 µM | > 30 µM | > 30 µM | > 30 µM | 0.0961 µM | 90.3% | 85.8% | 93.6% | 89% | 91.7% | 95.5% | 95.7% | 93.7% | 98.2% | 98.8% | MIC [4]: 0.139 µM (≈ 0.0569 µg/mL); viability at 28.5 h, 30 µM (in vitro): 116%
4 | O=C(N/N=C\c1ccc([N+](=O)[O-])o1)c1nc(-c2ccccc2)cc(-c2ccccc2)n1 [c3e] | > 30 µM | > 30 µM | > 30 µM | > 30 µM | > 30 µM | 10.3 µM | 18.3 µM | 15.4 µM | > 30 µM | 0.126 µM | 92% | 92.4% | 88.3% | 89.2% | 86.8% | 92.2% | 91.6% | 90.7% | 90% | 98.9% | viability at 28.5 h, 30 µM (in vitro): 107%
5 | CC(C)CC(=O)SCCNC(=O)CCNC(=O)[C@H](O)C(C)(C)COP(=O)(O)OP(=O)(O)OC[C@H]1O[C@@H](n2cnc3c(N)ncnc32)[C@H](O)[C@@H]1OP(=O)(O)O [isovaleryl-CoA] |  |  |  |  |  |  |  |  |  |  |  |  |  |  |  |  |  |  |  |  | intact protein LC/MS [6]: 2-methylbutyryl-CoA or isovaleryl-CoA, as expected, generated the corresponding acyl-enzyme intermediates
